Laboratory results as given in patent publication US20260317356A1, “SMALL MOLECULE MODULATORS OF OGG1” (AZKARRA THERAPEUTICS, INC., priority 2023, published 2026).

Molecular target: hOGG1 (Homo sapiens, UniProt O15527)
Experiment: Biochemical fluorescence assay to measure enzymatic activity of hOGG1 (OGG1/APEX IC50)
Set-up: Protein His-hOGG1 (12-323) was prepared; His (N); host or cells: E. coli
Conditions: 1 nM OGG1+2 nM APEX+6 nM dsDNA (8-oxo-dG substrate); pH 7.5; RT 40 min; read-out: OGG1/APEX IC50
Protocol: Biological Example 1: Biochemical Assay to Measure Enzymatic Activity of hOGG1 (OGG1/APEX IC50)
The reported fluorescence-based assay (Donley et al ACS Chem Biol 2015; 10 (10), 2334-2343) was modified to include hAPE1/APEX1 protein. The oligonucleotide substrate with 8-oxo-dG lesion at X was prepared (LGC Biosearch, Petaluma, CA):
Protein His-hOGG1 (12-323) was prepared by Chempartner Corporation via E. coliexpression and purification by Ni-NTA and S200 column to afford 95% purity by SDS-PAGE and SEC-HPLC analysis and hAPE1/APEX1 was purchased (SinoBiological). The assay was run in 384-well plates following the general procedure: (1) compound dilution; (2) addition of hOGG1/APEX1 to compound wells; (3) addition of DNA substrate to compound wells; (4) read Ex520/Em600 (TAMRA) fluorescence signal after 40 minutes; (5) calculate % inhibition/compound concentration; (6) calculate dose-response curve and IC50 value.
• (1) 20 mM of compound solution was prepared in DMSO; • (2) Compounds were diluted to 10 mM in DMSO in ECHO Source plate (Labcyte PP-0200), by mixing […] DMSO; • (3) 4× dilution of compounds, for 10 points, by mixing […] DMSO; and • (4) Dispensed 150 nL compounds to assay plate (Corning 3573) in column 3-22. Dispensed 150 nL DMSO to Min and Max control wells in column 1-2 and column 23-24.
• (1) Assay buffer was prepared (20 mM Tris pH 7.5, 100 mM KCl, 0.1% BSA, 0.01% Tween). • (2) […] buffer was added to Min control wells (Column 1-2). • (3) Enzyme was diluted to 2× with buffer (2 nM OGG1+4 nM APEX1). Dispensed […] (except Min control wells). Shake at 500 rpm at RT for 20 min. • (4) DNA substrate diluted to 2× with buffer (12 nM). Dispensed […]. Final concentration: 1 nM OGG1+2 nM APEX+6 nM dsDNA. Shake at RT for 40 min. • (5) Ex520/Em600 (TAMRA) was read.
• (1) Calculated respective mean of Max and Min control wells. • (2) Converted data to percentage inhibition.
Inhibition (%)=(Max mean−value)/(Max mean−Min mean)×100% • (3) Calculated sigmoidal curve (3-parameter) and IC50 (using GraphPad Prism software).

Sequence of hOGG1 (O15527 12-323): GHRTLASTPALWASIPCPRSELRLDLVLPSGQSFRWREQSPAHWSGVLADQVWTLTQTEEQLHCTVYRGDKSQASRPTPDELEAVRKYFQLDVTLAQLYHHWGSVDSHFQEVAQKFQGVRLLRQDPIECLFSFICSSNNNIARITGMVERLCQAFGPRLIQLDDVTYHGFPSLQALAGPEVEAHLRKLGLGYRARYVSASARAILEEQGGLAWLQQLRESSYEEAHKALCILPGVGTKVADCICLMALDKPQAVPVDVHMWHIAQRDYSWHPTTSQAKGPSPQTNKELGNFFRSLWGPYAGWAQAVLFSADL

IC50 [nM]	SMILES
> 10000	Cc1cnc(NC(=O)[C@H]2CC[C@@H](N3Cc4c(C)cccc4C3=O)CC2)s1 [Example 235, (1s,4s)-4-(4-Methyl-1-oxoisoindolin-2-yl)-N-(5-methylthiazol-2-yl)cyclohexanecarboxamide]
> 10000	COc1cc(NC(=O)[C@H]2CC[C@@H](N3Cc4c(C)cccc4C3=O)CC2)ccn1 [Example 234, (1s,4s)-N-(2-Methoxypyridin-4-yl)-4-(4-methyl-1-oxoisoindolin-2-yl)cyclohexanecarboxamide]
100 to 1000	COc1cc(NC(=O)[C@H]2CC[C@@H](N3Cc4c(C)cc(Br)cc4NC3=O)CC2)ccc1C [Example 74, (1s,4s)-4-(7-bromo-5-methyl-2-oxo-1,2-dihydroquinazolin-3(4H)-yl)-N-(3-methoxy-4-methylphenyl)cyclohexanecarboxamide]
100 to 1000	Cc1cc(NC(=O)[C@H]2CC[C@@H](N3Cc4c(C)cccc4C3=O)CC2)ccc1Cl [Example 225, (1s,4s)-N-(4-Chloro-3-methylphenyl)-4-(4-methyl-1-oxoisoindolin-2-yl)cyclohexanecarboxamide]
< 100	COc1cc(NC(=O)[C@H]2CC[C@@H](N3Cc4c(ccnc4C)NC3=O)CC2)ccc1C [Example 43, (1s,4s)-N-(3-Methoxy-4-methylphenyl)-4-(5-methyl-2-oxo-1,2-dihydropyrido[4,3-d]pyrimidin-3(4H)-yl)cyclohexanecarboxamide]
100 to 1000	COc1cc(NC(=O)[C@H]2CC[C@@H](N3Cc4c(Cl)cccc4C3=O)CC2)ccc1C [Example 149, (1s,4s)-4-(4-Chloro-1-oxoisoindolin-2-yl)-N-(3-methoxy-4-methylphenyl)cyclohexanecarboxamide]
100 to 1000	COc1cc(NC(=O)[C@H]2CC[C@@H](N3Cc4c(ccc(OC5CNC5)c4C)NC3=O)CC2)ccc1C [Example 49, (1s,4s)-4-(6-(Azetidin-3-yloxy)-5-methyl-2-oxo-1,2-dihydroquinazolin-3(4H)-yl)-N-(3-methoxy-4-methylphenyl)cyclohexanecarboxamide]
100 to 1000	COc1cc(NC(=O)[C@H]2CC[C@@H](N3Cc4c(Br)cc(NC(=O)CN5CCOCC5)cc4C3=O)CC2)ccc1C [Example 199, (1s,4s)-4-(4-Bromo-6-(2-morpholinoacetamido)-1-oxoisoindolin-2-yl)-N-(3-methoxy-4-methylphenyl)cyclohexanecarboxamide]
> 10000	COc1cc(NC(=O)[C@H]2[C@@H]3C[C@@H](N4Cc5c(Br)cccc5C4=O)C[C@@H]32)ccc1C (single isomer, unassigned) [Example 270]
1000 to 10000	COc1cc(NC(=O)[C@H]2CC[C@@H](N3Cc4c(C)cccc4C3=O)CC2)ccc1C1CC1 [Example 121, (1s,4s)-N-(4-Cyclopropyl-3-methoxyphenyl)-4-(4-methyl-1-oxoisoindolin-2-yl)cyclohexane-1-carboxamide]
< 100	COc1cc(NC(=O)[C@H]2CC[C@@H](N3Cc4c(ccc(O)c4C)NC3=O)CC2)ccc1C [Example 60, (1s,4s)-4-(6-Hydroxy-5-methyl-2-oxo-1,2-dihydroquinazolin-3(4H)-yl)-N-(3-methoxy-4-methylphenyl)cyclohexanecarboxamide]
1000 to 10000	COc1cc(NC(=O)N2CCC(N3Cc4c(Br)cccc4C3=O)CC2)ccc1C [Example 181, 4-(4-Bromo-1-oxoisoindolin-2-yl)-N-(3-methoxy-4-methylphenyl)piperidine-1-carboxamide]
100 to 1000	Cc1cccc2c1CN([C@H]1CC[C@@H](C(=O)Nc3ccc(Cl)c(F)c3)CC1)C2=O [Example 241, (1s,4s)-N-(4-Chloro-3-fluorophenyl)-4-(4-methyl-1-oxoisoindolin-2-yl)cyclohexanecarboxamide]
1000 to 10000	COc1cc(NC(=O)[C@]2(C)CC[C@@H](N3Cc4c(C)cccc4C3=O)CC2)ccc1C [Example 278, (1r,4r)-N-(3-methoxy-4-methylphenyl)-1-methyl-4-(4-methyl-1-oxoisoindolin-2-yl)cyclohexane-1-carboxamide]
100 to 1000	COc1cc(NC(=O)[C@H]2CC[C@H](N3Cc4c(C)cc(NCCN(C)C)cc4NC3=O)CC2)ccc1C [Example 85, (1r,4r)-4-(7-(2-(dimethylamino)ethylamino)-5-methyl-2-oxo-1,2-dihydroquinazolin-3(4H)-yl)-N-(3-methoxy-4-methylphenyl)cyclohexanecarboxamide]
100 to 1000	COc1cc(NC(=O)[C@H]2CC[C@@H](N3Cc4c(Br)ccc(Cl)c4C3=O)CC2)ccc1C [Example 142, (1s,4s)-4-(4-Bromo-7-chloro-1-oxoisoindolin-2-yl)-N-(3-methoxy-4-methylphenyl)cyclohexanecarboxamide]
< 100	COc1cc(NC(=O)[C@H]2CC[C@@H](N3Cc4c(C)cc(NCC5(F)CNC5)cc4C3=O)CC2)ccc1C [Example 140, (1s,4s)-4-(6-(((3-Fluoroazetidin-3-yl)methyl)amino)-4-methyl-1-oxoisoindolin-2-yl)-N-(3-methoxy-4-methylphenyl)cyclohexanecarboxamide]
< 100	COc1cc(NC(=O)[C@H]2CC[C@@H](N3Cc4c(C)cc(CNS(C)(=O)=O)cc4NC3=O)CC2)ccc1C [Example 26, (1s,4s)-N-(3-Methoxy-4-methylphenyl)-4-(5-methyl-7-(methylsulfonamidomethyl)-2-oxo-1,2-dihydroquinazolin-3(4H)-yl)cyclohexanecarboxamide]
100 to 1000	COc1cc(NC(=O)[C@H]2CC[C@@H](N3Cc4c(C)cc(OCCN(C)C)cc4OC3=O)CC2)ccc1C [Example 117, (1s,4s)-4-(7-(2-(dimethylamino)ethoxy)-5-methyl-2-oxo-2H-benzo[e][1,3]oxazin-3(4H)-yl)-N-(3-methoxy-4-methylphenyl)cyclohexane-1-carboxamide]
> 10000	C=C(C)c1cccc2c1CN([C@H]1CC[C@@H](C(=O)Nc3ccc(C)c(OC)c3)CC1)C2=O [Example 157, (1s,4s)-N-(3-Methoxy-4-methylphenyl)-4-(1-oxo-4-(prop-1-en-2-yl)isoindolin-2-yl)cyclohexanecarboxamide]
> 10000	COc1cc(NC(=O)[C@@H]2[C@@H]3C[C@H](N4Cc5c(Br)cccc5C4=O)C[C@@H]32)ccc1C (single isomer, unassigned) [Example 267]
< 100	COc1ccc(NC(=O)[C@H]2CC[C@@H](N3Cc4c(C)cccc4NC3=O)CC2)cc1C#N [Example 86, (1s,4s)-N-(3-cyano-4-methoxyphenyl)-4-(5-methyl-2-oxo-1,2-dihydroquinazolin-3(4H)-yl)cyclohexanecarboxamide]
100 to 1000	CCc1cccc2c1CN([C@H]1CC[C@@H](C(=O)Nc3ccc(C)c(OC)c3)CC1)C(=O)N2 [Example 72, (1s,4s)-4-(5-ethyl-2-oxo-1,2-dihydroquinazolin-3(4H)-yl)-N-(3-methoxy-4-methylphenyl)cyclohexanecarboxamide]
100 to 1000	COc1cc(NC(=O)[C@H]2CC[C@@H](N3Cc4c(Br)cc(NC(=O)Cc5c[nH]cn5)cc4C3=O)CC2)ccc1C [Example 201, (1s,4s)-4-(6-(2-(1H-Imidazol-4-yl)acetamido)-4-bromo-1-oxoisoindolin-2-yl)-N-(3-methoxy-4-methylphenyl)cyclohexanecarboxamide]
1000 to 10000	COc1cc(NC(=O)[C@H]2CC[C@@H](N3Cc4c(C)cccc4C3=O)CC2)ccc1CO [Example 145, (1s,4s)-N-(4-(Hydroxymethyl)-3-methoxyphenyl)-4-(4-methyl-1-oxoisoindolin-2-yl)cyclohexanecarboxamide]
> 10000	COc1cc(NC(=O)[C@@H]2CC[C@@H](N3Cc4c(C)cc(NCCN(C)C)cc4C3=O)C2)ccc1C [Example 139, (1R,3R)-3-(6-((2-(Dimethylamino)ethyl)amino)-4-methyl-1-oxoisoindolin-2-yl)-N-(3-methoxy-4-methylphenyl)cyclopentanecarboxamide]
< 100	CNC(=O)c1cc(C)c2c(c1)NC(=O)N([C@H]1CC[C@@H](C(=O)Nc3ccc(C)c(OC)c3)CC1)C2 [Example 80, 3-((1s,4s)-4-(3-methoxy-4-methylphenylcarbamoyl)cyclohexyl)-N,5-dimethyl-2-oxo-1,2,3,4-tetrahydroquinazoline-7-carboxamide]
